Reference: patent US20230133037A1, “EXTENDED RELEASE GASTRORETENTIVE FORMULATION AGAINST HELICOBACTER PYLORI” (SOLSTAR PHARMA, priority 2019, published 2023)
In brackets after ≈: the same amount, converted by molar mass. Where two headings read alike, the source gives them in different places.

Columns and labels:
[1] = tested on: H. pylori PremSS1 strain; assay: In vivo test of anti-Helicobacter pylori activities; set-up: species or system C57BL/6 mice; conditions: ARTE/SG 40, Nacinn 40, Amoxicillin 30 mg/kg
Method: C57BL/6 mice with SPF («specific pathogen free») status, were housed at the A2 pet store at the University of Bordeaux, in an acclimatization room for 1 week and then transferred to zone of experimentation where the project was conducted.
The H. pylori PremSS1 strain (supplied by Dr Anne Mueller, University of Zurich) was used. The functionality of the cagPAl island was verified in vitro in a coculture model with the gastric epithelial line AGS: induction of a so-called «hummingbird» phenotype.
The mice were force-fed at 6 weeks of age with the H. pylori premSS1 strain. The gavages were carried out 3 consecutive days, with a rich suspension of bacteria (2 to 3 dishes of rich culture for 5 mice). […]
The dishes were incubated at 35° C. in a microaerobic atmosphere and H. pylori was identified by its phenotypic and biochemical characteristics (morphology, urease test, oxidase test). The dishes were read after at least 5 days of incubation. […]
Quantitative PCR: the presence of H. pylori DNA and mouse housekeeping genes is quantified in the extracts by quantitative PCR in real time, by detecting the fluorescence emitted by the neo PCR products formed using Sybr Green™. […]

[2] = tested on: E. coli; assay: Antibacterial activity of artesunate with different treatments; format: cell-based; conditions: 0.2% w/w in medium, start 1.0×10^6 CFU/mL, 18 h at 36.5° C.
Method: Practically, a bacterial cryovial is thawed and cultured twice during 18 h at 36.5° C. in 9 mL of broth for activation.

[3] = Solubility in simulated gastric fluid; format: physicochemical; conditions: 0.5 g in 10 mL SGF pH 1.2, 36.5° C.; for appearance of the solution in SGF after 2 hours: 100 rev/min
Method: All solutions are incubated at 36.5° C. under mild shaking with (100 rev/min) in a G24 Environmental Incubator Shaker (New Brunswick Scientific Co., N.J., USA).

[4] = Water solubility / behaviour in solution; format: physicochemical
[5] = tested on: H. pylori strains; assay: Minimum inhibitory concentration, agar dilution method; format: cell-based; conditions: Helicobacter pylori; about 59 strains, 48 h at 37° C., microaerobic
[6] = tested on: K562 cells; assay: Cell growth, resazurin fluorescence assay; format: cell-based; conditions: 3 days
Method: (§1) Cell growth was followed via the resazurin (alamar blue) fluorescence assay. At day −1, cells were seeded in 100 μL media at a density of 4×10^3 cells/well in 96-well plates and incubated overnight at 37° C. […] Cultures were performed during 3 days after the addition of the drugs. At day 3, Resazurin (0.1 mg/mL, Sigma-Aldrich) was added at 20 μL/well, and plates were incubated for 4 h at 37° C., then fluorescence (Aex=529.5 nm, Aem =582 nm) was measured using ClarioStar™ microplate reader. […] Those supposedly selected cells may be used to test for artemisinin sensitivity before and after encapsulation. This first objective, in addition to checking the sensitivity to artesunate (ARTE), is to test the sensitivity to the complex form (ARTE/Starch Glycolate) as well. This provides information on whether the encapsulation process affects the efficiency of ARTE in vitro. The effects of both drugs on the proliferation of 10 AML cell lines and 1 CML cell line was tested. Both the drug or the drug/Starch Glycolate complex were used at 2 μM, a dose that has been reported to be very efficient at least in two AML cell lines (MV4-11 and MOLM13). The ARTE/Starch Glycolate in water was prepared fresh every time for each experiment. Frozen (−20° C.) ARTE/Starch Glycolate complex was also tested in parallel to fresh ARTE/Starch Glycolate in each experiment, to evaluate stability after freezing. • a.

[7] = tested on: MV4-11 cells; assay: Cell growth, resazurin fluorescence assay; format: cell-based; conditions: 3 days
Method: as §1

[8] = tested on: KG1 cells; assay: Cell growth, resazurin fluorescence assay; format: cell-based; conditions: 3 days
Method: as §1

[9] = tested on: KG1a cells; assay: Cell growth, resazurin fluorescence assay; format: cell-based; conditions: 3 days
Method: as §1, with “[…] ARTE.SG and ARTE have” for “Both”, “Same IC50 in 4 Representative Leukemic Cell Lines To further confirm” for “drug or”, “equivalent efficiency between ARTE and ARTE.SG, the IC50 of both drugs on 4 leukemic” for “drug/Starch Glycolate complex were used at 2 μM, a dose that has been reported to be very efficient at least in two AML”, “that cover the 3 sensitivity groups described above” for “(MV4-11 and MOLM13). The ARTE/Starch Glycolate in water”, “calculated.” for “prepared fresh every time for each experiment. Frozen (−20° C.) ARTE/Starch Glycolate complex was also tested in parallel to fresh ARTE/Starch Glycolate in each experiment, to evaluate stability after freezing. • a.”

[10] = according to the DrugBank; cited from earlier work
[11] = set-up: species or system CD-1 mice; conditions: CD-1, mouse, in vivo
Method: The in vivo study was carried out on CD-1 mice (body weight approximately 20 g), and the experimental protocol is conducted according to the Animal Care Committee approval.
After review of the medical records provided by the animal supplier facility, mice are observed during 1 week for their acclimation before the experiment.
After administering the treatments as indicated above, blood samples are collected at 5, 15, 30, 45, 120 and 480 minutes after administration and mice are sacrificed. The plasma is separated by centrifugation and conserved −80° C. before processing.
An amount of 400 μL of plasma is dispersed in 1 mL of acetonitrile to precipitate proteins and agitated during 5 minutes with a vortex before placing the suspensions of the sample in an ultrasonic bath for 1 minute. The precipitated proteins are separated by centrifugation (15000 g, 5 minutes at 16° C.) and the supernatant is collected in a microplate for analysis.

[12] = set-up: species or system CD-1 mice; conditions: CD-1, mouse, in vivo, po, 200 mg/kg
Method: The in vivo study was carried out on CD-1 mice (body weight approximately 20 g), and the experimental protocol is conducted according to the Animal Care Committee approval. After review of the medical records provided by the animal supplier facility, mice are observed during 1 week for their acclimation before the experiment.

[13] = tested on: ML2 cells; assay: Cell growth, resazurin fluorescence assay; format: cell-based; conditions: 2 μM, 3 days
Method: (§2) Cell growth was followed via the resazurin (alamar blue) fluorescence assay. At day −1, cells were seeded in 100 μL media at a density of 4×10^3 cells/well in 96-well plates and incubated overnight at 37° C. […] Cultures were performed during 3 days after the addition of the drugs. At day 3, Resazurin (0.1 mg/mL, Sigma-Aldrich) was added at 20 μL/well, and plates were incubated for 4 h at 37° C., then fluorescence (Aex=529.5 nm, Aem =582 nm) was measured using ClarioStar™ microplate reader.
(§3) Those supposedly selected cells may be used to test for artemisinin sensitivity before and after encapsulation. This first objective, in addition to checking the sensitivity to artesunate (ARTE), is to test the sensitivity to the complex form (ARTE/Starch Glycolate) as well. This provides information on whether the encapsulation process affects the efficiency of ARTE in vitro. The effects of both drugs on the proliferation of 10 AML cell lines and 1 CML cell line was tested. Both the drug or the drug/Starch Glycolate complex were used at 2 μM, a dose that has been reported to be very efficient at least in two AML cell lines (MV4-11 and MOLM13). The ARTE/Starch Glycolate in water was prepared fresh every time for each experiment. Frozen (−20° C.) ARTE/Starch Glycolate complex was also tested in parallel to fresh ARTE/Starch Glycolate in each experiment, to evaluate stability after freezing. • a.

[14] = tested on: THP1 cells; assay: Cell growth, resazurin fluorescence assay; format: cell-based; conditions: 2 μM, 3 days
Method: as §2, §3

[15] = tested on: HL60 cells; assay: Cell growth, resazurin fluorescence assay; format: cell-based; conditions: 2 μM, 3 days
Method: as §2, §3

[16] = tested on: MOLM13 cells; assay: Cell growth, resazurin fluorescence assay; format: cell-based; conditions: 2 μM, 3 days
Method: as §2, §3

[17] = tested on: HEL cells; assay: Cell growth, resazurin fluorescence assay; format: cell-based; conditions: 2 μM, 3 days
Method: as §2, §3

[18] = tested on: NB4 cells; assay: Cell growth, resazurin fluorescence assay; format: cell-based; conditions: 2 μM, 3 days
Method: as §2, §3

[19] = tested on: U937 cells; assay: Cell growth, resazurin fluorescence assay; format: cell-based; conditions: 2 μM, 3 days
Method: as §2, §3

Structure (SMILES): CC1(C)S[C@@H]2[C@H](NC(=O)[C@H](N)c3ccc(O)cc3)C(=O)N2[C@H]1C(=O)O [Amoxicillin]
- antibacterial effect by quantitative culture or quantitative PCR (Experiment 1) ([1]; 7 days of treatment, absence of proton pump inhibitor): no antibacterial effect
- antibacterial effect by quantitative culture or quantitative PCR (Experiment 2) ([1]; 14 days, with Pantoprazole 150 mg/kg): certain antibacterial effect

Structure (SMILES): C[C@H]1[C@H](OC(=O)CCC(=O)[O-])O[C@@H]2O[C@@]3(C)CC[C@H]4[C@H](C)CC[C@@H]1[C@@]24OO3.[Na+] [artesunate sodium salt form]
- bacterial concentration after incubation (reduction from 10^6) [2]: 10^4 CFU/mL
- appearance of the solution in SGF after 2 hours [3]: cloudy, but no evident precipitation is observed
- appearance of the solution in SGF after 12 h [3]: a precipitation is formed at the bottom
- solubility in water [4]: only slightly soluble

Structure (SMILES): C[C@@H]1CCC2[C@@H](C)[C@H](OC(=O)CCC(=O)O)OC3O[C@@]4(C)CCC1[C@]32OO4 (stereo partly shown) [untreated artesunate, Artesunate]
- MIC50 [5]: 20 µg/mL (≈ 52 µM)
- MIC90 [5]: 80 µg/mL (≈ 208 µM)
- bacterial concentration after incubation (reduction from 10^6) [2]: no significant change
- appearance of the solution in SGF after 2 hours [3]: milky appearance, with an important precipitation at the bottom of vial
- appearance of the solution in SGF after 12 h [3]: no change
- sensitivity group ([6]; 2 μM): low sensitivity
- IC50 ([6]; Homo sapiens, K562, 72 h, preliminary): ~8000 nM
- sensitivity group ([7]; 2 μM): highly sensitive
- IC50 ([7]; Homo sapiens, MV4-11, 72 h, preliminary): 250 to 500 nM
- sensitivity group ([8]; 2 μM): moderately sensitive
- IC50 ([8]; Homo sapiens, KG-1, 72 h, preliminary): ~1000 nM
- sensitivity group ([9]; 2 μM): low sensitivity
- IC50 ([9]; Homo sapiens, KG-1a, 72 h, preliminary): ~2000 nM
- water solubility [10]: 680 µg/mL (≈ 1770 µM)
- AUC Area under curve ([11]; iv, 3.5 mg/kg): 507 ± 102 ng·min/mL
- Cl Clearance ([11]; iv, 3.5 mg/kg): 415.8 ± 23.9 L/h/kg
- Tmax Maximum peak time ([11]; iv, 3.5 mg/kg): 15 min
- T½ Apparent plasma half-life ([11]; iv, 3.5 mg/kg): 12 ± 2 min
- Cl Clearance ([11]; po, 200 mg/kg): 1457.7 ± 511.6 L/h/kg
- Oral Bioavailability F ([11]; po, 200 mg/kg): 8 ± 4%
- time to maximum concentration of DHA (prostate section, printed 'in the brain') [12]: 30 min
- sensitivity group [13]: moderately sensitive
- sensitivity group [14]: highly sensitive
- sensitivity group [15]: moderately sensitive
- sensitivity group [16]: highly sensitive
- sensitivity group [17]: moderately sensitive
- sensitivity group [18]: highly sensitive
- sensitivity group [19]: moderately sensitive
